Activity calls are given as the source filed them. No cut-off for these calls is given here.

This is an account of results in ChEMBL document CHEMBL3877326, “Design, synthesis and evaluation of some N-methylenebenzenamine derivatives as selective acetylcholinesterase (AChE) inhibitor and antioxidant to enhance learning and memory” (Bioorg Med Chem, 2017).

Experiment [1] concerns Rattus norvegicus. Put plainly: Cognition enhancement activity in Charles Foster albino rat model of spatial working memory assessed as escape latency at 10 mg/kg, po for administered from day 1 to 10 measured 1 hr post last dose on day 8 by Morris water maze test (reference value: 16.97 +/- 0.8 sec). The experiment is classed as functional.
Experiment [2] in a line: Antioxidant activity assessed as H2O2 radical scavenging activity at 10 to 100 ug/ml incubated for 10 mins by UV-Visible spectrophotometric method. The experiment is classed as functional.
Experiment [3] has as its system Rattus norvegicus. Put plainly: Cognition enhancement activity in Charles Foster albino rat model of spatial working memory assessed as escape latency at 10 mg/kg, po for administered from day 1 to 10 measured 1 hr post last dose on day 9 by Morris water maze test (reference value: 17.38 +/- 0.79 sec). The experiment is classed as functional.
Experiment [4] can be described thus: Antioxidant activity assessed as DPPH radical scavenging activity at 10 to 100 ug/ml incubated for 30 mins under dark condition. It is filed as functional. (Loss of DPPH colour is used to gauge radical scavenging.)
Experiment [5] concerns Rattus norvegicus. In words: Cognition enhancement activity in Charles Foster albino rat model of spatial working memory assessed as escape latency at 10 mg/kg, po for administered from day 1 to 10 measured 1 hr post last dose on day 10 by Morris water maze test (reference value: 14.12 +/- 0.78 sec). The experiment is classed as functional.
Experiment [6] relates to Rattus norvegicus. Put plainly: Cognition enhancement activity in Charles Foster albino rat model of spatial working memory assessed as escape latency at 10 mg/kg, po for administered from day 1 to 10 measured 1 hr post last dose on day 7 by Morris water maze test (reference value: 17.45 +/- 0.62 sec). The experiment is classed as functional.
The subject of experiment [7] is Rattus norvegicus. Put plainly: Cognition enhancement activity in Charles Foster albino rat model of spatial reference memory assessed as increase in time spent in target quadrant during probe trial at 10 mg/kg, po for 4 days administered from day 1 to 4 measured 1 hr post last dose on day 4 by Morris water maze test. It is filed as functional, organism-based.
For experiment [8], the system named is Rattus norvegicus. In words: Cognition enhancement activity in Charles Foster albino rat model of spatial reference memory assessed as decrease in escape latency at 10 mg/kg, po administered from day 1 to 2 measured 1 hr post last dose on day 2 by Morris water maze test. The experiment is classed as functional, organism-based.
Experiment [9] concerns the target T1, Acetylcholinesterase (Electrophorus electricus, UniProt O42275). Put plainly: Inhibition of electric eel AChE using acetylthiocholine iodide as substrate preincubated for 20 mins followed by substrate addition by Ellman's method. (In Ellman's method for cholinesterases, released thiocholine reacts with DTNB.)
Experiment [10] can be described thus: Selectivity index, ratio of IC50 for horse serum BuChE to IC50 for electric eel AChE.
Another experiment has as its target Cholinesterase (Equus caballus, UniProt P81908). Put plainly: Inhibition of horse serum BuChE using butyrylthiocholine iodide as substrate preincubated for 20 mins followed by substrate addition by Ellman's method. The experiment is classed as ADME.
The test system of experiment [11] is Rattus norvegicus. Put plainly: Cognition enhancement activity in Charles Foster albino rat model of spatial working memory assessed as escape latency at 20 mg/kg, po for administered from day 1 to 10 measured 1 hr post last dose on day 9 by Morris water maze test (reference value: 17.38 +/- 0.79 sec). It is filed as functional.
Experiment [12] concerns Rattus norvegicus. Put plainly: Cognition enhancement activity in Charles Foster albino rat model of spatial working memory assessed as escape latency at 20 mg/kg, po for administered from day 1 to 10 measured 1 hr post last dose on day 10 by Morris water maze test (reference value: 14.12 +/- 0.78 sec). It is filed as functional.
The subject of experiment [13] is Rattus norvegicus. In words: Cognition enhancement activity in Charles Foster albino rat model of spatial reference memory assessed as decrease in escape latency at 20 to 30 mg/kg, po administered from day 1 to 2 measured 1 hr post last dose on day 2 by Morris water maze test. It is filed as functional, organism-based.
Experiment [14] has as its target T1, Acetylcholinesterase. In words: Uncompetitive inhibition of electric eel AChE using varying levels of acetylthiocholine iodide substrate preincubated for 20 mins followed by substrate addition by Lineweaver-Burk plot analysis.
In experiment [15] the test system is Rattus norvegicus. In words: Cognition enhancement activity in Charles Foster albino rat model of spatial working memory assessed as escape latency at 30 mg/kg, po for administered from day 1 to 10 measured 1 hr post last dose on day 10 by Morris water maze test (reference value: 14.12 +/- 0.78 sec). The experiment is classed as functional.
Experiment [16] relates to Rattus norvegicus. In words: Cognition enhancement activity in Charles Foster albino rat model of spatial working memory assessed as escape latency at 20 mg/kg, po for administered from day 1 to 10 measured 1 hr post last dose on day 7 by Morris water maze test (reference value: 17.45 +/- 0.62 sec). It is filed as functional.
In experiment [17] the test system is Rattus norvegicus. Put plainly: Cognition enhancement activity in Charles Foster albino rat model of spatial working memory assessed as escape latency at 30 mg/kg, po for administered from day 1 to 10 measured 1 hr post last dose on day 7 by Morris water maze test (reference value: 17.45 +/- 0.62 sec). It is filed as functional.
Experiment [18] has as its system Rattus norvegicus. Put plainly: Cognition enhancement activity in Charles Foster albino rat model of spatial reference memory assessed as increase in time spent in target quadrant during probe trial at 10 to 30 mg/kg, po administered from day 1 to 4 measured 1 hr post last dose on day 4 by Morris water maze test. It is filed as functional, organism-based.
Experiment [19] relates to Rattus norvegicus. In words: Cognition enhancement activity in Charles Foster albino rat model of spatial working memory assessed as escape latency at 20 mg/kg, po for administered from day 1 to 10 measured 1 hr post last dose on day 8 by Morris water maze test (reference value: 16.97 +/- 0.8 sec). The experiment is classed as functional.
In experiment [20] the test system is Rattus norvegicus. Put plainly: Cognition enhancement activity in Charles Foster albino rat model of spatial working memory assessed as escape latency at 30 mg/kg, po for administered from day 1 to 10 measured 1 hr post last dose on day 8 by Morris water maze test (reference value: 16.97 +/- 0.8 sec). It is filed as functional.
Experiment [21] has as its system Rattus norvegicus. In words: Cognition enhancement activity in Charles Foster albino rat model of spatial working memory assessed as escape latency at 30 mg/kg, po for administered from day 1 to 10 measured 1 hr post last dose on day 9 by Morris water maze test (reference value: 17.38 +/- 0.79 sec). The experiment is classed as functional.
In experiment [22] the test system is Rattus norvegicus. Put plainly: Ex vivo inhibition of AChE in Charles Foster albino rat brain assessed as substrate hydrolyzed per mg protein at 30 mg/kg, po measured after 1 hr using acetylthiocholine iodide as substrate by Ellman's method (reference value: 46.56 +/- 0.66 nmol/min). It is filed as functional.

Chain of Cholinesterase (P81908 whole entry): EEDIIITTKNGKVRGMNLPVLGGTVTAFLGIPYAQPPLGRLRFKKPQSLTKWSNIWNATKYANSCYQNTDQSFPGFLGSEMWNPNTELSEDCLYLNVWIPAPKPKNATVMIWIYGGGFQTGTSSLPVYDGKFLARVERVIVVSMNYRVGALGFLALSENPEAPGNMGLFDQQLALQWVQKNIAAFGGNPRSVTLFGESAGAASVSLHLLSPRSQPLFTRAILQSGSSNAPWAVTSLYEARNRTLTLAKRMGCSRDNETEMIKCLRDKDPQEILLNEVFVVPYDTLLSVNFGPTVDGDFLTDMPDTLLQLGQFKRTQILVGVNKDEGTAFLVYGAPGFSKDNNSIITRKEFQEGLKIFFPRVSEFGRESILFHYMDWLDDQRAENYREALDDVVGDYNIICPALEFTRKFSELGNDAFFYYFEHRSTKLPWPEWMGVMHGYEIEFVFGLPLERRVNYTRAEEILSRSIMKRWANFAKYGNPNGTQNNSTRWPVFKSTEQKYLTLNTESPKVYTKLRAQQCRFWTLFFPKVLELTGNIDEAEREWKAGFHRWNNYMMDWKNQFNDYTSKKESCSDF
T1 sequence (O42275 whole entry): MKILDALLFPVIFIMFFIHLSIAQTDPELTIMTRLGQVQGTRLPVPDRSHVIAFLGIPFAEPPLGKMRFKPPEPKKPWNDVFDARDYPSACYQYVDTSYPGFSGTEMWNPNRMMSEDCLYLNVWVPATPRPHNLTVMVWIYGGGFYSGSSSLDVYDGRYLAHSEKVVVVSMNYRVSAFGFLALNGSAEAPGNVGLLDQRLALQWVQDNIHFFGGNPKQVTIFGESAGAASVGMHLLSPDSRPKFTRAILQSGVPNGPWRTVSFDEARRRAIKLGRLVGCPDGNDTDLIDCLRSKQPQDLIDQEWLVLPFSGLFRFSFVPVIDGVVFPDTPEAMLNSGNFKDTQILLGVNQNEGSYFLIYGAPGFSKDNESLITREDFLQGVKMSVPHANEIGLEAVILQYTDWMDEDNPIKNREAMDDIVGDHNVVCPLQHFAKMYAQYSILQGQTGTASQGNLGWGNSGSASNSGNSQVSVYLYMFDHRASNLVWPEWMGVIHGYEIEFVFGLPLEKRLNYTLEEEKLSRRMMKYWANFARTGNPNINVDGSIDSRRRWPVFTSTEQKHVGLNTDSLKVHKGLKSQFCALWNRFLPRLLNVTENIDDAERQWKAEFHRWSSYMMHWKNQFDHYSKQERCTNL

As to `COc1cc2c(cc1OC)C(=O)C(CC1CCN(Cc3ccccc3)CC1)C2` (configuration not stated) [DONEPEZIL], the Time in the experiment on Rattus norvegicus [1] is 14.38 s; in the experiment on Rattus norvegicus [3] it was 7.78 s; in the experiment with Rattus norvegicus [5], 7.33 s; with Rattus norvegicus [6], 16.88 s. Besides, the outcome (in experiment [2]; in experiment [4]; in the experiment on Rattus norvegicus [7]; in the experiment with Rattus norvegicus [8]) was Active.

The IC50 is the concentration at which inhibition is half-maximal. The low end stands for greater potency in that assay, the high end for weaker potency in that assay. Take `COc1cc(/C=N/c2ccc(C(=O)O)cc2)cc(OC)c1OC`: the IC50 on Acetylcholinesterase [9] was 11.5 µM; against Cholinesterase it was 378 µM. Moreover, in experiment [10], the Ratio IC50 was found to be 32.7.

For orientation: Ki means a dissociation constant, usually derived from enzyme kinetics or from competition with a known ligand. For `COc1cc(/N=C/c2cc(OC)c(OC)c(OC)c2)cc(OC)c1`, the Time with Rattus norvegicus [11] is listed as 12.23 s; in the experiment with Rattus norvegicus [1], 15.45 s; with Rattus norvegicus [12] it was 8.87 s; with Rattus norvegicus [15] it was 8.92 s; in the experiment with Rattus norvegicus [16] it was 16.95 s; in the experiment on Rattus norvegicus [3] it was 15.12 s. The Time in the experiment with Rattus norvegicus [17] is given as 16.87 s; with Rattus norvegicus [19], 15.69 s; in the experiment with Rattus norvegicus [5] it was 10.2 s; in the experiment on Rattus norvegicus [20], 15.23 s; in the experiment on Rattus norvegicus [6], 17.57 s; in the experiment with Rattus norvegicus [21], 10.37 s. In addition, the IC50 against Acetylcholinesterase [9] worked out at 0.82 µM; against Cholinesterase, 328 µM. Moreover, the outcome (with Rattus norvegicus [13]; in experiment [2]; with Rattus norvegicus [18]; in experiment [4]) was Active. Further, the Ki at Acetylcholinesterase [14] worked out at 720 nM. For the same compound, the Ratio IC50 in experiment [10] amounted to 402. Further, the Activity with Rattus norvegicus [22] came out at 30.85 nmol/min.

`O=C(O)c1ccc(/N=C/c2ccccc2[N+](=O)[O-])cc1`: the IC50 is 6 µM at Acetylcholinesterase [9] and 387 µM at Cholinesterase. The Ratio IC50 in experiment [10] is 64.5.

Take `O=C(O)c1ccc(/N=C/c2ccccc2)cc1`: the IC50 came out at 12.6 µM against Acetylcholinesterase [9] and 502 µM at Cholinesterase. In addition, the Ratio IC50 in experiment [10] was determined as 39.7.

Take `COc1cc(/N=C/c2ccc([N+](=O)[O-])cc2)cc(OC)c1`: the figures for the IC50 against Acetylcholinesterase [9] and at Cholinesterase were 7.01 µM and 452 µM, respectively. Also, the Ratio IC50 in experiment [10] was found to be 64.5.

On to `COc1cc(/N=C/c2ccccc2O)cc(OC)c1`, for which the IC50 at Acetylcholinesterase [9] came out at 25.5 µM; at Cholinesterase it was 747 µM. Also, the Ratio IC50 in [10] is 29.2.

For `COc1ccc(/C(=N\c2cc(OC)cc(OC)c2)c2ccccc2)cc1`, the IC50 at Acetylcholinesterase [9] worked out at 4.37 µM; at Cholinesterase it was 284 µM. Besides, the Ratio IC50 in [10] was found to be 65.1.

With `COc1ccc(/C(=N\c2ccc(C(=O)O)cc2)c2ccccc2)cc1`, the IC50 on Acetylcholinesterase [9] was 6.09 µM; against Cholinesterase, 292 µM. Further, the Ratio IC50 in experiment [10] was determined as 47.9.

On to `COc1cc(/N=C/c2ccccc2[N+](=O)[O-])cc(OC)c1`, for which the IC50 amounted to 14.3 µM against Acetylcholinesterase [9] and 457 µM against Cholinesterase. Also, the Ratio IC50 in experiment [10] worked out at 31.8.

For the compound `COc1cc(/C(C)=N/c2ccc(C(=O)O)cc2)ccc1O`, the IC50 is 3.93 µM on Acetylcholinesterase [9] and 839 µM against Cholinesterase. In addition, the Ratio IC50 in [10] came to 214.

In the case of `O=C(O)c1ccc(/N=C/c2ccccc2O)cc1`, the IC50 on Acetylcholinesterase [9] was found to be 18 µM; at Cholinesterase it was 717 µM. In experiment [10], the Ratio IC50 is 39.8.

For `O=C(O)c1ccc(/N=C/c2ccc([N+](=O)[O-])cc2)cc1`, the half-inhibitory concentration (IC50) against Acetylcholinesterase [9] came out at 5.95 µM; at Cholinesterase, 217 µM. Besides, in [10], the Ratio IC50 is 36.5.
